Assay results: PubChem BioAssay AID248 (DTP/NCI, 2004)
Values joined by “and” are separate entries in the source; they are usually repeats but may differ in a detail not shown here. Identical values can stand only once. Toxic doses and inconclusive results are not listed. No stated cut-off is given here; in the data, active means T/C of 150% or more; inactive means T/C below 125%.

Test system: L1210 leukemia ip in BDF1 mice, survival T/C
Assay: NCI In Vivo Anticancer Drug Screen. Data for tumor model L1210 Leukemia (intraperitoneal) in B6D2F1 (BDF1) mice
Details: endpoint: mean survival time, higher = longer survival
Procedure, shortened: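 In this screen, tumor-bearing mice given compound are compared to those given vehicle, and their survival values are reported as a treated-to-control quotient.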

Measured: T/C

Cc1cc(O)c2c(c1)C(=O)C13C(=C2O)C(=O)C2C(O)C1C1C(O)C3C(=O)C3=C(O)c4c(O)cc(C)cc4C(=O)C321 (stereo not given)
inactive: dose: 20.0 mg/kg/injection, schedule: Q04DX003 (ip), vehicle: saline with Tween-80 107 % of control | dose: 40.0 mg/kg/injection, schedule: Q04DX003 (ip), vehicle: saline with Tween-80 100 % of control | dose: 80.0 mg/kg/injection, schedule: Q04DX003 (ip), vehicle: saline with Tween-80 102 % of control

O=C(Nc1ccc(C2=NCCCN2)cc1)Nc1ccc(C2=NCCCN2)cc1
inactive: dose: 0.31 mg/kg/injection, schedule: Q01DX Z (ip), vehicle: saline 94 % of control | dose: 0.63 mg/kg/injection, schedule: Q01DX Z (ip), vehicle: saline 110 % of control | dose: 1.25 mg/kg/injection, schedule: Q01DX Z (ip), vehicle: saline 114 % of control and 119 % of control | dose: 2.5 mg/kg/injection, schedule: Q01DX Z (ip), vehicle: saline 114 % of control | dose: 4.4 mg/kg/injection, schedule: Q01DX Z (ip), vehicle: saline 96 % of control

CCCCCC[n+]1cccc(C#N)c1
inactive: dose: 18.75 mg/kg/injection, schedule: Q01DX009 (ip), vehicle: saline 95 % of control | dose: 37.5 mg/kg/injection, schedule: Q01DX009 (ip), vehicle: saline 95 % of control | dose: 75.0 mg/kg/injection, schedule: Q01DX001 (ip), vehicle: saline 113 % of control | dose: 75.0 mg/kg/injection, schedule: Q01DX009 (ip), vehicle: saline 94 % of control | dose: 75.0 mg/kg/injection, schedule: Q04DX003 (ip), vehicle: saline 97 % of control | dose: 150.0 mg/kg/injection, schedule: Q01DX001 (ip), vehicle: saline 95 % of control | dose: 150.0 mg/kg/injection, schedule: Q04DX003 (ip), vehicle: saline 101 % of control | dose: 300.0 mg/kg/injection, schedule: Q01DX001 (ip), vehicle: saline 100 % of control

CCCCC/C=C(\CCCCCC)c1ccccc1
inactive: dose: 100.0 mg/kg/injection, schedule: Q01DX001 (ip), vehicle: saline with Tween-80 98 % of control | dose: 200.0 mg/kg/injection, schedule: Q01DX001 (ip), vehicle: saline with Tween-80 95 % of control | dose: 400.0 mg/kg/injection, schedule: Q01DX001 (ip), vehicle: saline with Tween-80 90 % of control

Cc1cc(O)cc(C)c1Cl
inactive: dose: 100.0 mg/kg/injection, schedule: Q01DX009 (ip), vehicle: saline with Tween-80 91 % of control | dose: 100.0 mg/kg/injection, schedule: Q04DX003 (ip), vehicle: saline with Tween-80 92 % of control | dose: 200.0 mg/kg/injection, schedule: Q01DX009 (ip), vehicle: saline with Tween-80 92 % of control | dose: 200.0 mg/kg/injection, schedule: Q04DX003 (ip), vehicle: saline with Tween-80 96 % of control | dose: 400.0 mg/kg/injection, schedule: Q01DX009 (ip), vehicle: saline with Tween-80 89 % of control | dose: 400.0 mg/kg/injection, schedule: Q04DX003 (ip), vehicle: saline with Tween-80 96 % of control
